Measurements published in ChEMBL document CHEMBL1926662, “Trace amine-associated receptor 1 is a stereoselective binding site for compounds in the amphetamine class” (Bioorg Med Chem, 2011).

Assays:
[1] = target: T1, Trace amine-associated receptor 1 (Homo sapiens, UniProt Q96RJ0); test: Activation of C-terminal HA epitope tagged human TAAR1 expressed in RD-HGA16 cells co-expressing Gq protein, Galpha16 by cAMP accumulation assay; format: functional, cell-based
T1 sequence (Q96RJ0 whole entry): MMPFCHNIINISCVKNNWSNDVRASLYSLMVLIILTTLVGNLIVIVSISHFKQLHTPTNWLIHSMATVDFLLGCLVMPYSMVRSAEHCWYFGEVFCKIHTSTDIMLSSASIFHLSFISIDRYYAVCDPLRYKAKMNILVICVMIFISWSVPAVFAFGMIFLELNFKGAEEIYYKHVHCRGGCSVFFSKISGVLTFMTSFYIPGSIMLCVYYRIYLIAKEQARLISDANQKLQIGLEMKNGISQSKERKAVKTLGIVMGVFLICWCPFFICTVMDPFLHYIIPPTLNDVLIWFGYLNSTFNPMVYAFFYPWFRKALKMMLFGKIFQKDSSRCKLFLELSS

[2] = target: T2, Trace amine-associated receptor 1 (Macaca mulatta, UniProt Q8HZ64); test: Activation of rhesus monkey TAAR1 expressed in RD-HGA16 cells co-expressing Gq protein assessed as cAMP accumulation by fluorescence plate reader; format: functional, cell-based
T2 sequence (Q8HZ64 whole entry): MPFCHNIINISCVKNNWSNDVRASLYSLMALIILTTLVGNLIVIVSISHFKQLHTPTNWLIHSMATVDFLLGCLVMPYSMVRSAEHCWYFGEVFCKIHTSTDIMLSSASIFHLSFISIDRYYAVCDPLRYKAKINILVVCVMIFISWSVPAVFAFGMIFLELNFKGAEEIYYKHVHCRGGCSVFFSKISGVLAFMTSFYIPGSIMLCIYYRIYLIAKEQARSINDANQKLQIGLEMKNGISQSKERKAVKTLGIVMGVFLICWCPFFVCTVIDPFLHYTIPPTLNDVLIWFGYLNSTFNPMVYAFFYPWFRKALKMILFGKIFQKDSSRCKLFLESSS

[3] = target: T1, Trace amine-associated receptor 1; test: Activation of human TAAR1 expressed in Syrian hamster AV12-664 cells co-expressing GalphaS protein assessed as accumulation of cAMP after 30 mins using cAMP XS EA/CL as substrate by luminescence method in presence of RX821002 and alprenolol; format: functional, cell-based
cells = conditions: HEK293
Description: Activation of chimeric rat-human expressed in human HEK293 cells assessed as accumulation of [3H]cAMP after 1 hr by liquid scintillation counting

[4] = target: T3, Trace amine-associated receptor 1 (Mus musculus, UniProt Q923Y8); test: Activation of mouse TAAR1 expressed in human HEK293 cells assessed as accumulation of [3H]cAMP after 1 hr by liquid scintillation counting; format: functional, cell-based
[5] = target: T4, Trace amine-associated receptor 1 (Rattus norvegicus, UniProt Q923Y9); test: Activation of rat TAAR1 expressed in HEK293 cells assessed as accumulation of [3H]cAMP after 1 hr by liquid scintillation counting; format: functional, cell-based
[6] = target: T4, Trace amine-associated receptor 1; test: Activation of rat TAAR1 expressed in HEK293 cells assessed as accumulation of [3H]cAMP after 1 hr by competitive binding assay; format: functional, cell-based
[7] = target: T1, Trace amine-associated receptor 1; test: Activation of human TAAR1 expressed in human HEK293T cells assessed as cAMP accumulation after 10 mins by BRET assay; format: functional, cell-based, HEK-293T
[8] = target: T3, Trace amine-associated receptor 1; test: Activation of mouse TAAR1 expressed in human HEK293 cells assessed as accumulation of cAMP after 15 mins; format: functional, cell-based

T4 sequence (Q923Y9 whole entry): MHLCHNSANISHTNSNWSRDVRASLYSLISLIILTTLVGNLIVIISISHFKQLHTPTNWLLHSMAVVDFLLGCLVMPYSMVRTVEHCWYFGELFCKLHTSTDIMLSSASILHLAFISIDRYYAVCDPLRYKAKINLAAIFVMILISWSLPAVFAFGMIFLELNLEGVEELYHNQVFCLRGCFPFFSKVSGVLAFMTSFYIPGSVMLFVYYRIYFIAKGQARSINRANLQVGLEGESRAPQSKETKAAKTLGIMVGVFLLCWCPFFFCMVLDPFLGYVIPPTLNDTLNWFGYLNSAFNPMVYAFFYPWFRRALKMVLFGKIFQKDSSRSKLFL
T3 sequence (Q923Y8 whole entry): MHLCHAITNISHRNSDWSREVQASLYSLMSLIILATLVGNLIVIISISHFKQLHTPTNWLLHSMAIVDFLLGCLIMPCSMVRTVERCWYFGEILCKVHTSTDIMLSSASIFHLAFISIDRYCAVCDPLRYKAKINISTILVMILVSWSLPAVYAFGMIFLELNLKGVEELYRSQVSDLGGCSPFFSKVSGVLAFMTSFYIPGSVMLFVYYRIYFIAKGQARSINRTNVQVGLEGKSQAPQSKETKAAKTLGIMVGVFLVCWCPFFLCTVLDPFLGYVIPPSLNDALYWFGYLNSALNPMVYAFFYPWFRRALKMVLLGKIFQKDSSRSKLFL

Question: For COc1cc(C[C@H](C)N)c(OC)cc1C, which EC50 ([1]; rd-hga16) is on record?
Answer: The EC50 was “Not Active”.

Question: What about the EC50 ([2]; read-out: EC50) of the same compound?
Answer: The EC50 was 0.9 µM.

Question: For NCCc1ccc(Oc2ccc(O)cc2)c(I)c1, which EC50 [3] is on record?
Answer: Its EC50 is 1.51 µM.

Question: Which EC50 ([1]; read-out: EC50) does the source give for C[C@@H](N)Cc1ccc(O)cc1 here?
Answer: Its EC50 is 3.16 µM.

Question: What about the EC50 (cells) of the same compound?
Answer: Its EC50 is over 8.54 µM.

Question: And the EC50 [4]?
Answer: Its EC50 is 5.65 µM.

Question: And the EC50 ([2]; read-out: EC50)?
Answer: The EC50 was 0.424 µM.

Question: And the EC50 [5]?
Answer: The EC50 was 0.06 µM.

Question: With C[C@H](N)Cc1ccc2c(c1)OCO2 as the compound, how does the EC50 ([1]; read-out: EC50) read?
Answer: The EC50 was 6.57 µM.

Question: What about the EC50 ([2]; read-out: EC50) of the same compound?
Answer: The EC50 was 1.35 µM.

Question: With C[C@@H](N)Cc1ccc2c(c1)OCO2 as the compound, how does the EC50 ([1]; read-out: EC50) read?
Answer: The EC50 was 11.7 µM.

Question: And the EC50 ([2]; read-out: EC50)?
Answer: The EC50 was 2.48 µM.

Question: Which EC50 ([1]; read-out: EC50) does the source give for COc1cccc(C[C@@H](C)N)c1 here?
Answer: Its EC50 is 6.5 µM.

Question: And the EC50 ([2]; rd-hga16)?
Answer: Its EC50 is “Not Active”.

Question: For CCc1cc(OC)c(C[C@H](C)N)cc1OC, which EC50 ([2]; rd-hga16) is on record?
Answer: Its EC50 is “Not Active”.

Question: What does the source list for CCc1cc(OC)c(C[C@@H](C)N)cc1OC?
Answer: EC50 ([1]; rd-hga16): Not Active; EC50 ([2]; rd-hga16): Not Active

Question: For CN[C@H](C)Cc1ccccc1, which EC50 ([1]; read-out: EC50) is on record?
Answer: Its EC50 is 3.3 µM.

Question: And the EC50 (cells)?
Answer: Its EC50 is 9.83 µM.

Question: What about the EC50 [4] of the same compound?
Answer: Its EC50 is 2.44 µM.

Question: What about the EC50 ([2]; read-out: EC50) of the same compound?
Answer: The EC50 was 2.5 µM.

Question: What about the EC50 [5] of the same compound?
Answer: Its EC50 is 1.19 µM.

Question: For CN[C@@H](C)Cc1ccc2c(c1)OCO2, which EC50 ([2]; read-out: EC50) is on record?
Answer: Its EC50 is 16.1 µM.

Question: With C[C@@H](N)Cc1cccc(C(F)(F)F)c1 as the compound, how does the EC50 ([1]; rd-hga16) read?
Answer: The EC50 was “Not Active”.

Question: What does the source list for COc1cc(C[C@@H](C)N)c(OC)cc1C?
Answer: EC50 ([1]; rd-hga16): Not Active; EC50 ([2]; rd-hga16): Not Active

Question: With CN[C@H](C)Cc1ccc2c(c1)OCO2 as the compound, how does the EC50 ([1]; rd-hga16) read?
Answer: Its EC50 is “Not Active”.

Question: What about the EC50 ([2]; read-out: EC50) of the same compound?
Answer: The EC50 was 7.4 µM.

Question: For COc1cc(C[C@H](C)N)c(OC)cc1Br, which EC50 ([1]; read-out: EC50) is on record?
Answer: The EC50 was 15.3 µM.

Question: What about the EC50 ([2]; read-out: EC50) of the same compound?
Answer: The EC50 was 2.14 µM.

Question: Which results are given for COc1cc(C[C@@H](C)N)c(OC)cc1Br?
Answer: EC50 ([1]; read-out: EC50): 31.9 µM; EC50 ([2]; read-out: EC50): 13.9 µM

Question: For CC(N)Cc1ccc(O)cc1 (racemic) [HYDROXYAMPHETAMINE], which EC50 [6] is on record?
Answer: The EC50 was 0.05 µM.

Question: With CNC(C)Cc1ccc2c(c1)OCO2 (racemic) [MIDOMAFETAMINE] as the compound, how does the EC50 [6] read?
Answer: The EC50 was 1.7 µM.

Question: With COc1cccc(C[C@H](C)N)c1 [(S)-M-METHOXYAMPHETAMINE] as the compound, how does the EC50 ([1]; read-out: EC50) read?
Answer: The EC50 was 1.9 µM.

Question: What about the EC50 ([2]; read-out: EC50) of the same compound?
Answer: The EC50 was 3.3 µM.

Question: Which results are given for C[C@H](N)Cc1ccc(O)cc1 [(S)-P-HYDROXYAMPHETAMINE]?
Answer: EC50 ([1]; read-out: EC50): 2.96 µM; EC50 (cells): > 5.42 µM; EC50 [4]: 0.28 µM; EC50 ([2]; read-out: EC50): 0.101 µM; EC50 [5]: 0.19 µM

Question: Which EC50 [7] does the source give for CN[C@@H](C)Cc1ccccc1 [METHAMPHETAMINE] here?
Answer: The EC50 was 1.3 µM.

Question: And the EC50 [8]?
Answer: The EC50 was 0.07 µM.

Question: And the EC50 ([1]; read-out: EC50)?
Answer: The EC50 was 1.5 µM.

Question: What about the EC50 (cells) of the same compound?
Answer: Its EC50 is 4.44 µM.

Question: And the EC50 [4]?
Answer: The EC50 was 0.92 µM.

Question: And the EC50 ([2]; read-out: EC50)?
Answer: Its EC50 is 5.3 µM.

Question: What about the EC50 [5] of the same compound?
Answer: Its EC50 is 0.89 µM.

Question: Which EC50 [3] does the source give for NCCc1ccccc1 [PHENETHYLAMINE] here?
Answer: Its EC50 is 0.106 µM.
